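Method: 48-hour compound exposure of cells in 96-well plates, five concentrations, linear interpolation of endpoints. GI50 is the concentration that inhibits growth by half.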 The source made the active and inactive calls. Cut-off read from the data, not from the text of the source: active = GI50 up to about 1.1 µM and inactive = higher.
Legend:
Test in all cases: DTP human tumour cell line panel, 48 h
[1] = system: 786-0
[2] = system: A498
[3] = system: A549
[4] = system: ACHN
[5] = system: BT-549
[6] = system: CAKI-1
[7] = system: CCRF-CEM
[8] = system: COLO 205
[9] = system: EKVX
[10] = system: HCC 2998
[11] = system: HCT-116
[12] = system: HCT-15
[13] = system: HL-60
[14] = system: HOP-62
[15] = system: HOP-92
[16] = system: HT-29
[17] = system: Hs-578T
[18] = system: IGROV-1
[19] = system: K562
[20] = system: KM12
[21] = system: LOX IMVI
[22] = system: MCF7
[23] = system: MDA-MB-435
[24] = system: MOLT-4
[25] = system: Malme-3M
[26] = system: NCI-H226
[27] = system: NCI-H23
[28] = system: NCI-H460
[29] = system: NCI-H522
[30] = system: NCI/ADR-RES
[31] = system: OVCAR-3
[32] = system: OVCAR-4
[33] = system: OVCAR-5
[34] = system: OVCAR-8
[35] = system: PC-3
[36] = system: RPMI-8226
[37] = system: RXF 393
[38] = system: SF-268
[39] = system: SF-295
[40] = system: SF-539
[41] = system: SK-MEL-28
[42] = system: SK-MEL-2
[43] = system: SK-MEL-5
[44] = system: SK-OV-3
[45] = system: SNB-19
[46] = system: SNB-75
[47] = system: SR
[48] = system: SW-620
[49] = system: T47D
[50] = system: TK-10
[51] = system: U-251
[52] = system: UACC-257
[53] = system: UACC-62
[54] = system: UO-31
[55] = system: DU-145
[56] = system: M14
[57] = system: MDA-MB-231
[58] = system: MDA-N
[59] = system: SN12C

## O=C(NN=C1NCCCCN1)Nc1ccc(Cl)cc1
[1]
  GI50: > 100 µM (inactive)
[2]
  GI50: > 100 µM (inactive)
[3]
  GI50: > 100 µM (inactive)
[4]
  GI50: > 100 µM (inactive)
[5]
  GI50: > 100 µM (inactive)
[6]
  GI50: > 100 µM (inactive)
[7]
  GI50: 47.2 µM (inactive)
[8]
  GI50: > 100 µM (inactive)
[9]
  GI50: > 100 µM (inactive)
[10]
  GI50: > 100 µM (inactive)
[11]
  GI50: > 100 µM (inactive)
[12]
  GI50: > 100 µM
[13]
  GI50: 26.5 µM (inactive)
[14]
  GI50: > 100 µM (inactive)
[15]
  GI50: > 100 µM (inactive)
[16]
  GI50: > 100 µM (inactive)
[17]
  GI50: > 100 µM (inactive)
[18]
  GI50: > 100 µM (inactive)
[19]
  GI50: 33 µM (inactive)
[20]
  GI50: > 100 µM (inactive)
[21]
  GI50: > 100 µM (inactive)
[22]
  GI50: > 100 µM (inactive)
[23]
  GI50: > 100 µM (inactive)
[24]
  GI50: 23.9 µM (inactive)
[25]
  GI50: > 100 µM (inactive)
[26]
  GI50: 85.1 µM (inactive)
[27]
  GI50: > 100 µM (inactive)
[28]
  GI50: > 100 µM (inactive)
[29]
  GI50: > 100 µM (inactive)
[30]
  GI50: > 100 µM (inactive)
[31]
  GI50: > 100 µM (inactive)
[32]
  GI50: > 100 µM (inactive)
[33]
  GI50: > 100 µM (inactive)
[34]
  GI50: > 100 µM (inactive)
[35]
  GI50: 73.5 µM (inactive)
[36]
  GI50: 45.1 µM (inactive)
[37]
  GI50: > 100 µM (inactive)
[38]
  GI50: 93.1 µM (inactive)
[39]
  GI50: > 100 µM (inactive)
[40]
  GI50: > 100 µM (inactive)
[41]
  GI50: > 100 µM (inactive)
[42]
  GI50: > 100 µM (inactive)
[43]
  GI50: > 100 µM (inactive)
[44]
  GI50: > 100 µM (inactive)
[45]
  GI50: > 100 µM (inactive)
[46]
  GI50: 31.6 µM (inactive)
[47]
  GI50: 22.8 µM (inactive)
[48]
  GI50: > 100 µM (inactive)
[49]
  GI50: > 100 µM (inactive)
[50]
  GI50: > 100 µM (inactive)
[51]
  GI50: > 100 µM (inactive)
[52]
  GI50: > 100 µM (inactive)
[53]
  GI50: > 100 µM (inactive)
[54]
  GI50: > 100 µM (inactive)

## Cc1nc2ccc(F)cc2c2c1CCN2c1ccccc1
[1]
  GI50: 23 µM (inactive)
[2]
  GI50: 27.6 µM (inactive)
[3]
  GI50: 22.6 µM (inactive)
[4]
  GI50: 21.1 µM (inactive)
[5]
  GI50: 23.4 µM (inactive)
[7]
  GI50: 21.5 µM (inactive)
[8]
  GI50: 11.9 µM (inactive)
[55]
  GI50: 31.4 µM (inactive)
[9]
  GI50: 22.4 µM (inactive)
[10]
  GI50: 18.1 µM (inactive)
[11]
  GI50: 8.18 µM (inactive)
[12]
  GI50: 25.9 µM
[13]
  GI50: 7.43 µM (inactive)
[14]
  GI50: 32.9 µM (inactive)
[15]
  GI50: 12.2 µM (inactive)
[16]
  GI50: 8.51 µM (inactive)
[17]
  GI50: 17.9 µM (inactive)
[18]
  GI50: 18.6 µM (inactive)
[19]
  GI50: 11.8 µM (inactive)
[20]
  GI50: 23.9 µM (inactive)
[21]
  GI50: 13.8 µM (inactive)
[22]
  GI50: 28.1 µM (inactive)
[23]
  GI50: 14.1 µM (inactive)
[24]
  GI50: 15.1 µM (inactive)
[25]
  GI50: 20.2 µM (inactive)
[26]
  GI50: 16.6 µM (inactive)
[27]
  GI50: 20 µM (inactive)
[28]
  GI50: 13.5 µM (inactive)
[29]
  GI50: 17.8 µM (inactive)
[30]
  GI50: 18.3 µM (inactive)
[31]
  GI50: 30.5 µM (inactive)
[32]
  GI50: 23.7 µM (inactive)
[34]
  GI50: 20.9 µM (inactive)
[35]
  GI50: 19.1 µM (inactive)
[36]
  GI50: 15.8 µM (inactive)
[37]
  GI50: 15 µM (inactive)
[38]
  GI50: 23.3 µM (inactive)
[39]
  GI50: 11.7 µM (inactive)
[40]
  GI50: 21 µM (inactive)
[41]
  GI50: 16.2 µM (inactive)
[43]
  GI50: 12.9 µM (inactive)
[45]
  GI50: 32.8 µM (inactive)
[46]
  GI50: 12.8 µM (inactive)
[47]
  GI50: 16.7 µM (inactive)
[48]
  GI50: 23.4 µM (inactive)
[49]
  GI50: 23.7 µM (inactive)
[50]
  GI50: 22.9 µM (inactive)
[51]
  GI50: 26 µM (inactive)
[52]
  GI50: 18.2 µM (inactive)
[53]
  GI50: 12 µM (inactive)
[54]
  GI50: 19 µM (inactive)

## O=[N+]([O-])c1cc(C2ON=C(c3ccccc3)N2C23CC4CC(CC(C4)C2)C3)ccc1Cl (stereo unspecified)
[1]
  GI50: > 100 µM (inactive)
[2]
  GI50: > 100 µM (inactive)
[3]
  GI50: > 100 µM (inactive)
[4]
  GI50: > 100 µM (inactive)
[6]
  GI50: > 100 µM (inactive)
[7]
  GI50: > 100 µM (inactive)
[8]
  GI50: > 100 µM (inactive)
[55]
  GI50: > 100 µM (inactive)
[9]
  GI50: > 100 µM (inactive)
[10]
  GI50: > 100 µM (inactive)
[11]
  GI50: 73.5 µM (inactive)
[12]
  GI50: > 100 µM
[13]
  GI50: > 100 µM (inactive)
[14]
  GI50: > 100 µM (inactive)
[15]
  GI50: > 100 µM (inactive)
[16]
  GI50: > 100 µM (inactive)
[17]
  GI50: > 100 µM (inactive)
[18]
  GI50: > 100 µM (inactive)
[19]
  GI50: > 100 µM (inactive)
[20]
  GI50: > 100 µM (inactive)
[21]
  GI50: > 100 µM (inactive)
[56]
  GI50: > 100 µM (inactive)
[22]
  GI50: 2.74 µM (inactive)
[57]
  GI50: > 100 µM (inactive)
[23]
  GI50: > 100 µM (inactive)
[58]
  GI50: > 100 µM (inactive)
[24]
  GI50: > 100 µM (inactive)
[25]
  GI50: > 100 µM (inactive)
[26]
  GI50: 49.5 µM (inactive)
[27]
  GI50: > 100 µM (inactive)
[28]
  GI50: > 100 µM (inactive)
[29]
  GI50: > 100 µM (inactive)
[30]
  GI50: > 100 µM (inactive)
[31]
  GI50: > 100 µM (inactive)
[32]
  GI50: > 100 µM (inactive)
[33]
  GI50: > 100 µM (inactive)
[34]
  GI50: > 100 µM (inactive)
[35]
  GI50: > 100 µM (inactive)
[36]
  GI50: > 100 µM (inactive)
[37]
  GI50: > 100 µM (inactive)
[38]
  GI50: > 100 µM (inactive)
[39]
  GI50: > 100 µM (inactive)
[40]
  GI50: > 100 µM (inactive)
[41]
  GI50: > 100 µM (inactive)
[42]
  GI50: > 100 µM (inactive)
[43]
  GI50: > 100 µM (inactive)
[44]
  GI50: > 100 µM (inactive)
[59]
  GI50: > 100 µM (inactive)
[45]
  GI50: > 100 µM (inactive)
[46]
  GI50: 15.5 µM (inactive)
[47]
  GI50: > 100 µM (inactive)
[49]
  GI50: > 100 µM (inactive)
[50]
  GI50: > 100 µM (inactive)
[51]
  GI50: > 100 µM (inactive)
[52]
  GI50: > 100 µM (inactive)
[54]
  GI50: > 100 µM (inactive)
